Experimental data taken from PubChem BioAssay AID1208 (EPA DSSTox, 2008).
Calls of active or inactive are those of the source.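 Rule for the calls: active = at least one rat sex group has a carcinogenic potency value and tumor site recorded; inconclusive = only rat studies were judged inadequate by the national testing program; inactive = no potency or tumor site, with negative rat experiments.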 *1 amine or outer side, *2 acyl side, *3 side chain or, on linkers, in order; H or OH if unused. Where a SMILES comes first, the peptide text is derived from it. Bridges are numbered along the chain shown (N, C = ends). Roman numbers before positions name the chains, in order. [ ]: non-standard residue; d: D form. Actinocin(1to9) = Cc1c2oc3c(C)ccc(C(=O)[*:2])c3nc-2c(C(=O)[*:1])c(N)c1=O; d(aIle) = CC[C@H](C)[C@@H](N)C(=O)O; NMeV = CN[C@H](C(=O)O)C(C)C; Sar = CNCC(=O)O

Tested on: rat chronic carcinogenicity bioassay, TD50
Experiment: DSSTox (CPDBAS) Carcinogenic Potency Database Summary Rat Bioassay Results
Settings: for Potency: stronger effect = lower value; for outcome: TD50_Rat_Note: no positive results
Procedure, shortened: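 The activity score maps log10(1/TD50_Rat_mmol) linearly onto 1–100; actives without a computed TD50, such as mixtures, receive 50. Source data are chronic rat carcinogenicity tests, using the most positive experiment for each sex.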

[1] = TargetSites_Rat_Female: no positive results
[2] = TD50_Rat_Note: TD50 is harmonic mean of more than one positive test, TargetSites_Rat_Female: liver
[3] = TD50_Rat_Note: TD50 is harmonic mean of more than one positive test, TargetSites_Rat_Female: esophagus, liver, nasal cavity, oral cavity
[4] = TD50_Rat_Note: TD50 is harmonic mean of more than one positive test, TargetSites_Rat_Female: hematopoietic system, liver
[5] = TD50_Rat_Note: TD50 is harmonic mean of more than one positive test, greater than ten-fold variation among TD50 values for positive res, TargetSites_Rat_Female: liver

O=S(=O)([O-])[O-].[Cd+2] gave a Potency (TD50_Rat_Note: TD50 is harmonic mean of more than one positive test, TargetSites_Rat_Female: lung) of 0.0217 mg/kg/day.

Work on CN(CC(O)CO)N=O (stereo unspecified) yielded a Potency (TargetSites_Rat_Female: esophagus, liver, lung, nasal cavity) of 0.646 mg/kg/day.

Molecule CCOP(=O)=O.CCOP(=O)=O.CCOP(=O)=O.[Al+3] has a Potency [1] of 3660 mg/kg/day.

With [Na+] the outcome was “inactive; no positive results”.

With Nc1cc(Cl)c(N)c(Cl)c1 the outcome [1] was “inactive; no positive results”.

With N#CS the outcome [1] was “inactive; no positive results”.

For c1ccc2ccccc2c1, the Potency (TD50_Rat_Note: TD50 is harmonic mean of more than one positive test, TargetSites_Rat_Female: nasal cavity) was 22.1 mg/kg/day.

With Cc1ccc2ncccc2c1 the outcome [1] was “inactive; no positive results”.

With ClCCl the Potency (TD50_Rat_Note: TD50 is harmonic mean of more than one positive test, TargetSites_Rat_Female: mammary gland) was 724 mg/kg/day.

OCC(CO)N[C@H]1C[C@](O)(CO)[C@@H](O)[C@H](O)[C@H]1O was tested, and the outcome [1] was “inactive; no positive results”.

In the case of COP(=O)(OC)OC=C(Cl)Cl, the Potency [1] is reported as 4.16 mg/kg/day.

In the case of CC1(C)[C@@H](O)CC[C@]2(C)[C@H]3C(=O)C=C4[C@@H]5C[C@@](C)(C(=O)O)CC[C@]5(C)CC[C@@]4(C)[C@]3(C)CC[C@@H]12, the outcome is reported as “inactive; no positive results”.

O=[N+]([O-])c1ccc(Cl)cc1 was tested, and the outcome was “inactive; no positive results”.

For COc1ccc(N)c(OC)c1, the outcome [1] was “inactive; no positive results”.

COC(=O)C(C)(C)Oc1ccc(-c2ccc(Cl)cc2)cc1 showed a Potency (TD50_Rat_Note: TD50 is harmonic mean of more than one positive test, harmonic mean of TD50 includes a value for upper 99% confidence li, TargetSites_Rat_Female: liver) of 4.78 mg/kg/day.

For Nc1nc(=S)c2ncn([C@H]3C[C@H](O)[C@@H](CO)O3)c2[nH]1, the Potency (TD50_Rat_Note: positive test results only by intraperitoneal or intravenous injection, TargetSites_Rat_Female: ear Zymbals gland) was 2.1 mg/kg/day.

In the case of CC[C@H](C)[C@H]1NC(=O)[C@@H](NC(=O)c2c3nc4c(C(=O)N[C@@H]5C(=O)N[C@H](C(C)C)C(=O)N6CCC[C@H]6C(=O)N(C)CC(=O)N(C)[C@@H](C(C)C)C(=O)O[C@@H]5C)ccc(C)c4oc-3c(C)c(=O)c2N)[C@@H](C)OC(=O)[C@H](C(C)C)N(C)C(=O)CN(C)C(=O)[C@@H]2CCCN2C1=O (I: T[d(aIle)]P[Sar][NMeV] / II: T[dV]P[Sar][NMeV]; ester I:1-I:C, II:1-II:C; linker I:N-II:N via Actinocin(1to9)), the outcome is reported as “inactive; no positive results”.

In the case of CC(=O)Nc1ccc(N=Nc2cc(C)ccc2O)cc1, the Potency [1] is reported as 380 mg/kg/day.

For CN(N=O)c1ccncc1, the outcome [1] was “inactive”.

With [CH3][Hg][Cl] the outcome [1] was “inactive; no positive results”.

CCCCC(CC)COC(=O)CCCCC(=O)OCC(CC)CCCC (stereo unspecified) was tested, and the outcome [1] was “inactive; no positive results”.

With NC(=S)Nc1ccccc1 the outcome [1] was “inactive; no positive results”.

CCO gave a Potency [1] of 9110 mg/kg/day.

Work on C=CCl yielded a Potency (TD50_Rat_Note: TD50 is harmonic mean of more than one positive test, greater than ten-fold variation among TD50 values for positive res, TargetSites_Rat_Female: ear Zymbals gland, kidney, liver, mammary gland, nasal cavity, nervous system, vascular system) of 6.11 mg/kg/day.

Molecule CCCCOCCOCCOCc1cc2c(cc1CCC)OCO2 has a Potency [2] of 633 mg/kg/day.

With Clc1ccc(C(c2ccc(Cl)cc2)C(Cl)Cl)cc1 the outcome [1] was “inactive; no positive results”.

In the case of ClC1=C(Cl)[C@@]2(Cl)[C@@H]3[C@@H](Cl)[C@H](Cl)C[C@@H]3C1(Cl)C2(Cl)Cl, the outcome [1] is reported as “inactive; no positive results”.

For CC(C)C[C@H]1C(=O)N2CCC[C@H]2[C@]2(O)O[C@](NC(=O)[C@@H]3C=C4c5cccc6[nH]c(Br)c(c56)C[C@H]4N(C)C3)(C(C)C)C(=O)N12, the Potency (TargetSites_Rat_Female: uterus) was 33.7 mg/kg/day.

With Nc1ccc(NCCO)c([N+](=O)[O-])c1 the outcome [1] was “inactive; no positive results”.

For C#C[C@]1(OC(C)=O)CC[C@H]2[C@@H]3CCC4=CC(=O)CC[C@@H]4[C@H]3CC[C@@]21C, the Potency (TD50_Rat_Note: TD50_Rat_mmol was not calculated for this mixture, but Activiity Score is assigned value of 50 to indicate active, TargetSites_Rat_BothSexes: liver, mammary gland, pituitary gland, uterus) was 1.94 mg/kg/day.

CCCCCN(CCCCC)N=O showed a Potency [2] of 4.03 mg/kg/day.

Molecule O=NN1CCCN(N=O)CC1 has a Potency [3] of 0.0615 mg/kg/day.

O=C1NC(c2ccc([N+](=O)[O-])s2)Nc2ccccc21 (stereo unspecified) showed a Potency (TargetSites_Rat_Female: all tumor bearing animals) of 1.53 mg/kg/day.

CC(=O)Nc1ccc(S(=O)(=O)c2ccc(NC(C)=O)cc2)cc1 was tested, and the Potency (TD50_Rat_Note: no positive results are statistically significant, TargetSites_Rat_Female: mammary gland) was 55.6 mg/kg/day.

Work on O=[N+]([O-])c1ccc(Nc2ccc(Nc3ccccc3)c(S(=O)(=O)O)c2)c([N+](=O)[O-])c1 yielded a Potency (TargetSites_Rat_Female: kidney) of 1710 mg/kg/day.

With Cc1ccc(N=C=O)cc1N=C=O the Potency (TD50_Rat_Note: TD50 is harmonic mean of more than one positive test, TargetSites_Rat_Female: liver, mammary gland, pancreas, subcutaneous tissue) was 33.7 mg/kg/day.

With COc1ccccc1N1CCN(CCCNc2cc(=O)n(C)c(=O)n2C)CC1 the outcome [1] was “inactive; no positive results”.

Nc1nc(N)c2nc(-c3ccccc3)c(N)nc2n1 was tested, and the outcome [1] was “inactive; no positive results”.

In the case of O=C1NC(=O)C(c2ccccc2)(c2ccccc2)N1, the outcome [1] is reported as “inactive; no positive results”.

For c1ccoc1, the Potency [4] was 0.396 mg/kg/day.

Work on O=Nc1ccc(NO)cc1 yielded a Potency (TargetSites_Rat_Female: urinary bladder) of 106 mg/kg/day.

Cc1cc(C)c(N=Nc2c(O)c(S(=O)(=O)O)cc3cc(S(=O)(=O)O)ccc23)cc1C showed a Potency [5] of 521 mg/kg/day.

O=C(C1CCCCC1)N1CC(=O)N2CCc3ccccc3C2C1 (stereo unspecified) was tested, and the outcome [1] was “inactive; no positive results”.

CCCN(N=O)C(N)=O was tested, and the Potency (TD50_Rat_Note: TD50 is harmonic mean of more than one positive test, harmonic mean of TD50 includes a value for upper 99% confidence li, TargetSites_Rat_Female: hematopoietic system) was 3.77 mg/kg/day.

CC1=C2C(=CO[C@@H](C)[C@@H]2C)C(=O)C(C(=O)O)=C1O showed a Potency (TD50_Rat_Note: TD50 value is overestimated as upper 99% confidence limit from study with 100% tumor incidence but no lifetable, TD50 is) of 7.48 mg/kg/day.

Work on Clc1cccc(-c2cccc(Cl)c2)c1 yielded a Potency (TD50_Rat_Note: no positive results are statistically significant, TD50_Rat_mmol was not calculated for this mixture, but Activiity Scor) of 157 mg/kg/day.

CNC(=O)CSP(=S)(OC)OC was tested, and the outcome [1] was “inactive; no positive results”.

O=c1ccc2ccccc2o1 showed a Potency [5] of 39.2 mg/kg/day.

In the case of C=C1C(CCl)(CCl)C2(Cl)C(Cl)C(Cl)C1(Cl)C2(Cl)Cl (stereo unspecified), the outcome [1] is reported as “inactive; no positive results”.

Work on O=NN1CCCC1c1ccc[n+]([O-])c1 (stereo unspecified) yielded a Potency (TD50_Rat_Note: TD50 is harmonic mean of more than one positive test, TargetSites_Rat_Female: esophagus, nasal cavity) of 0.876 mg/kg/day.

For Nc1ccc(N)c(Cl)c1, the outcome [1] was “inactive; no positive results”.

With CCOP(=S)(OCC)Oc1ccc2c(C)c(Cl)c(=O)oc2c1 the outcome [1] was “inactive; no positive results”.

With O=[N+]([O-])c1ccc(-c2cnc3ccccn23)o1 the Potency (TD50_Rat_Note: TD50 is harmonic mean of more than one positive test, TargetSites_Rat_Female: esophagus, kidney, mammary gland, stomach) was 13.6 mg/kg/day.

Nc1c(Cl)cc(Cl)cc1Cl was tested, and the outcome was “inactive; no positive results”.

With CC(C)CN(N=O)C(=N)N[N+](=O)[O-] the outcome was “inactive; no positive results”.

In the case of CCC(C)[N+](=O)[O-] (stereo unspecified), the Potency is reported as 2.86 mg/kg/day.

For CC(=O)Nc1cccc2c1Cc1ccccc1-2, the outcome [1] was “inactive”.

Cc1cc(Cc2ccc(N)c(C)c2)ccc1N gave a Potency [2] of 7.38 mg/kg/day.

Molecule NC(=O)/C(=C\c1ccc([N+](=O)[O-])o1)c1ccco1 has a Potency (TD50_Rat_Note: TD50 is harmonic mean of more than one positive test, greater than ten-fold variation among TD50 values for positive res, TargetSites_Rat_Female: mammary gland) of 29.4 mg/kg/day.

With ClC1=C(Cl)[C@]2(Cl)[C@@H]3[C@H]4C=CC(C4)[C@@H]3C1(Cl)C2(Cl)Cl the outcome [1] was “inactive; no positive results”.

CC(=O)CN(C)N=O was tested, and the Potency [3] was 0.0172 mg/kg/day.

In the case of Cc1ccc2c(c1)C(N1CCN(C)CC1)=Nc1ccccc1S2, the outcome [1] is reported as “inactive; no positive results”.

With COc1ccc2nc(S(=O)Cc3ncc(C)c(OC)c3C)[nH]c2c1 (stereo unspecified) the Potency (TD50_Rat_Note: TD50 is harmonic mean of more than one positive test, greater than ten-fold variation among TD50 values for positive res, TargetSites_Rat_Female: stomach) was 119 mg/kg/day.

For O=C1N(CCO)CCN1/N=C/c1ccc([N+](=O)[O-])o1, the Potency (TargetSites_Rat_Female: mammary gland) was 16.7 mg/kg/day.

For NC(=O)Cc1c([O-])on[n+]1Cc1ccccc1, the Potency was 4.24 mg/kg/day.

With C#C[C@]1(OC(C)=O)CC[C@H]2[C@@H]3CCC4=C[C@@H](OC(C)=O)CC[C@@H]4[C@H]3CC[C@@]21C the outcome [1] was “inactive”.

With O=[As](O)(O)O the outcome (TargetSites_Rat_BothSexes: no positive results) was “inactive”.

For CC[N+](=O)[O-], the outcome [1] was “inactive; no positive results”.

For CCCCOC(=O)c1ccccc1C(=O)OCc1ccccc1, the Potency (TargetSites_Rat_Female: no positive results- CPDB evaluation based on NCI Technical Report) was 1040 mg/kg/day.

ClC1(Cl)C2(Cl)C3(Cl)C4(Cl)C(Cl)(Cl)C5(Cl)C3(Cl)C1(Cl)C5(Cl)C24Cl (stereo unspecified) gave a Potency [4] of 1.77 mg/kg/day.

With O=C(O)CNCC(=O)O the outcome [1] was “inactive; no positive results”.

For Nc1ccc(Cc2ccc(N)c(Cl)c2)cc1Cl, the Potency (TD50_Rat_Note: TD50 is harmonic mean of more than one positive test, TargetSites_Rat_Female: liver, lung, mammary gland) was 19.3 mg/kg/day and the outcome was “inactive; no positive results”.

Cc1nc(N)cc2[nH]c3ccccc3c12 was tested, and the Potency (TD50_Rat_Note: TD50 is harmonic mean of more than one positive test, TargetSites_Rat_Female: clitoral gland, hematopoietic system, liver, mammary gland, small intestine, vascular system) was 6.66 mg/kg/day.

Work on N#[N+]c1cc(CCN)ccc1[O-] yielded a Potency of 37.6 mg/kg/day.

In the case of CC1=CC(=C(c2ccc(N)cc2)c2ccc(N)cc2)C=CC1=N, the outcome [1] is reported as “inactive; no positive results”.

In the case of Oc1cccc(O)c1, the outcome [1] is reported as “inactive; no positive results”.

CN(N=O)c1ccccn1 was tested, and the Potency (TargetSites_Rat_Female: esophagus) was 0.214 mg/kg/day.

In the case of COc1cc(OC)c2c3c(c(=O)oc2c1)CCC3=O, the outcome is reported as “inactive; no positive results”.

For OCCN(CCO)CCO, the outcome [1] was “inactive; no positive results”.

In the case of Cn1cnc([N+](=O)[O-])c1Sc1ncnc2nc[nH]c12, the outcome [1] is reported as “inactive”.
